In publication PMC6522510 (Nature Communications, 2019):
Read-outs that look alike come from different tables or passages of the source.

Legend:
MV4-11 [1] = assay: Secondary dose-response HTS, Cell Titer Glo; type: cell-based, human; details: MV4-11; for EC50: Homo sapiens
CHRF288-11 = assay: Secondary dose-response HTS, Cell Titer Glo; type: cell-based, human; details: for EC50: Homo sapiens
CMK = assay: Secondary dose-response HTS, Cell Titer Glo; type: cell-based, human; details: CMK; for average effective concentration, CMK: secondary high-throughput screen; for EC50: Homo sapiens
CMS = assay: Secondary dose-response HTS, Cell Titer Glo; type: cell-based, human; details: for EC50: Homo sapiens, HTS
M07e = assay: Secondary dose-response HTS, Cell Titer Glo; type: cell-based, human; details: for EC50: Homo sapiens, M-07e
ML2 = assay: Secondary dose-response HTS, Cell Titer Glo; type: cell-based, human; details: ML-2
U937 = assay: Secondary dose-response HTS, Cell Titer Glo; type: cell-based, human; details: for EC50: Homo sapiens, U-937
MOLM-13 = assay: Secondary dose-response HTS, Cell Titer Glo; type: cell-based, human; details: MOLM-13; for EC50: Homo sapiens
MV4-11 [2] = assay: cells; design: species or system AML cell lines (8); Secondary HTS, 10-point dose-response in triplicate, Cell Titer Glo viability, four-parameter fit EC50; details: Homo sapiens, MV4-11, 72 h, read-out: MV4-11
[3] = secondary high-throughput screen
[4] = secondary high-throughput screen, CHRF288-11
[5] = secondary high-throughput screen, CMS
[6] = secondary high-throughput screen, […]
[7] = secondary high-throughput screen, U937
[8] = secondary high-throughput screen, M07e
[9] = secondary high-throughput screen, read-out: average effective concentration, MOLM-13
[10] = HTS, secondary high-throughput screen, CHRF288-11, read-out: average effective concentration, CHRF288-11
[11] = secondary high-throughput screen, CMS, read-out: average effective concentration, CMS
[12] = secondary high-throughput screen, M07e, read-out: average effective concentration, M07e
[13] = Homo sapiens, secondary high-throughput screen, read-out: average effective concentration, ML-2
[14] = secondary high-throughput screen, U937, read-out: average effective concentration, U937
[15] = read-out: average effective concentration, CMK
[16] = read-out: average effective concentration, CMS
[17] = secondary HTS, 72 h, average of triplicate, read-out: EC50 CHRF288-11
[18] = secondary HTS, 72 h, average of triplicate, read-out: EC50 M07e
[19] = Homo sapiens, secondary HTS, 72 h, average of triplicate, read-out: EC50 ML2
[20] = secondary HTS, 72 h, average of triplicate, read-out: EC50 U937

Row | Molecule | average effective concentration, MV4-11 (MV4-11 [1]; [3]) | average effective concentration, CHRF288-11 (CHRF288-11; [4]) | average effective concentration, CMK (CMK) | average effective concentration, CMS (CMS; [5]) | average effective concentration, ML-2 (ML2; [3]) | average effective concentration, U937 (U937; [7]) | average effective concentration, M07e (M07e; [8]) | also measured
1 | C=C1C(=O)O[C@@H](CCC)[C@@H]1C(=O)O (racemic) [BUTYROLACTONE 3] | Inactive | Inactive | Inactive | Inactive | Inactive | Inactive | – | average effective concentration, M07e (M07e; [6]): Inactive
2 | O=c1[nH]c2ccccc2c2ccccc12 [6(5H)-PHENANTHRIDINONE] | Inactive | – | Inactive | Inactive | – | Inactive | Inactive | –
3 | Cc1noc(-c2ccc(-c3ccc(CC(=O)O)cc3)cc2)c1NC(=O)O[C@H](C)c1ccccc1Cl [AM-966] | Inactive | Inactive | Inactive | Inactive | Inactive | Inactive | Inactive | –
4 | CC(C)(O)[C@@H]1CC[C@](C)([C@H]2[C@@H](O)C[C@@]3(C)[C@@H]4C[C@H](O[C@@H]5O[C@H](CO)[C@@H](O)[C@H](O)[C@H]5O)[C@H]5C(C)(C)[C@@H](O[C@@H]6OC[C@@H](O)[C@H](O)[C@H]6O)CC[C@@]56C[C@@]46CC[C@]23C)O1 [ASTRAGALOSIDE IV] | Inactive | – | Inactive | Inactive | – | Inactive | Inactive | –
5 | C[C@H]1[C@H](OC(=O)CCC(=O)O)O[C@@H]2O[C@@]3(C)CC[C@H]4[C@H](C)CC[C@@H]1[C@@]24OO3 [Artesunate, reference compound] | – | – | – | – | – | – | – | EC50 (MOLM-13; [9]): 1300 nM; EC50 (CHRF288-11; [10]): 8600 nM; EC50 (CMS; [11]): 5900 nM; EC50 (M07e; [12]): 1200 nM; EC50 (ML2; [13]): 4600 nM; EC50 (U937; [14]): 1000 nM
6 | O=C(/C=C/c1cccc(S(=O)(=O)Nc2ccccc2)c1)NO [BELINOSTAT] | – | – | – | – | – | – | – | EC50 (MOLM-13; [9]): 270 nM; EC50 (CHRF288-11; [10]): 240 nM; EC50 (CMK; [15]): 14 nM; EC50 (CMS; [16]): 250 nM; EC50 (M07e; [12]): 190 nM; EC50 (ML2; [13]): 350 nM; EC50 (U937; [14]): 170 nM; EC50 (MV4-11 [2]): > 10000 nM
7 | C/C(=C\C(=O)Nc1ccccc1C(=O)O)c1ccc2ccccc2c1 [BIBR-1532] | Inactive | – | Inactive | Inactive | – | Inactive | Inactive | –
8 | COc1ccc(-c2nc(N3CCOCC3)c3sc(CN(C)c4ncc(C(=O)NO)cn4)cc3n2)cn1 [CUDC-907, reference compound] | – | – | – | – | – | – | – | EC50 (MOLM-13; secondary HTS, 72 h, average of triplicate, read-out: EC50 MOLM-13): 0.4 nM; EC50 (MOLM-13; [9]): 0.447 nM; EC50 (CHRF288-11; [10]): 0.89 nM; EC50 (CHRF288-11; [17]): 1 nM; EC50 (CMK; 72 h, read-out: EC50 CMK): 2 nM; EC50 (CMK; [15]): 1.9 nM; EC50 (CMS; 72 h, read-out: EC50 CMS): 1 nM; EC50 (M07e; [18]): 1 nM; EC50 (M07e; [12]): 0.7 nM; EC50 (ML2; [19]): 2 nM; EC50 (ML2; [13]): 1.7 nM; EC50 (U937; [20]): 4 nM
9 | CC(C)Oc1ccc(-c2cnc3c(-c4ccnc5ccccc45)cnn3c2)cc1 [DMH-1] | Inactive | Inactive | Inactive | Inactive | Inactive | Inactive | Inactive | –
10 | O=C1NCCc2c(OCCCCN3CCCCC3)cccc21 [DPQ] | Inactive | Inactive | Inactive | Inactive | Inactive | Inactive | Inactive | –
11 | COC(=O)[C@H](CC(C)C)NC(=O)c1ccc(NCc2cnc[nH]2)cc1-c1cccc2ccccc12 [GGTI-2147] | Inactive | Inactive | Inactive | Inactive | Inactive | Inactive | Inactive | –
12 | O=C(CCCCCCSc1ccc2ccccc2c1)NO [HNHA] | Inactive | – | Inactive | Inactive | – | Inactive | Inactive | EC50 (ML2; secondary high-throughput screen, read-out: average effective concentration, ML-2): 8500 nM
13 | O=C(c1ccc(Cl)cc1Cl)n1nnc2ccccc21 [ITSA1] | Inactive | – | Inactive | Inactive | – | Inactive | Inactive | –
14 | CC(N[C@H]1C[C@@H]1c1ccccc1)c1ccc2c(c1)OCCO2 (some centres unmarked) [LSD1-C76] | – | Inactive | Inactive | Inactive | Inactive | Inactive | Inactive | average effective concentration, MOLM-13 (MOLM-13; [3]): Inactive
15 | Nc1ncnc2c1ncn2[C@@H]1C=C(CO)[C@@H](O)[C@H]1O [NEPLANOCIN A] | Inactive | – | – | Inactive | – | – | – | average effective concentration, M07e (M07e; [6]): Inactive
16 | COc1ccc(-c2ccc3ncc4c(c3c2)n(-c2ccc(N3CCNCC3)c(C(F)(F)F)c2)c(=O)n4C)cn1 [NVP-BGT226, reference compound] | – | – | – | – | – | – | – | EC50 (MV4-11 [1]; secondary HTS, 72 h, average of triplicate, read-out: EC50 MV4-11): 50 nM; EC50 (MV4-11 [1]; secondary high-throughput screen, read-out: average effective concentration, MV4-11): 50 nM; EC50 (CHRF288-11; [10]): 55 nM; EC50 (CHRF288-11; [17]): 50 nM; EC50 (CMK; 72 h, read-out: EC50 CMK): 60 nM; EC50 (CMK; [15]): 63 nM; EC50 (CMS; 72 h, read-out: EC50 CMS): 10 nM; EC50 (CMS; [16]): 14 nM; EC50 (M07e; [18]): 250 nM; EC50 (M07e; [12]): 250 nM; EC50 (ML2; [19]): 230 nM; EC50 (ML2; [13]): 230 nM; EC50 (U937; [20]): 80 nM; EC50 (U937; [14]): 80 nM
17 | Cc1c(-c2cnccn2)ssc1=S [OLTIPRAZ] | – | – | – | – | – | – | – | EC50 (MOLM-13; [9]): > 10000 nM; EC50 (CHRF288-11; [10]): > 10000 nM; EC50 (CMS; [11]): 10000 nM; EC50 (M07e; [12]): > 10000 nM; EC50 (ML2; [13]): 3100 nM; EC50 (U937; [14]): 5800 nM
18 | NC(=O)c1cccc2ncc(-c3ccc(Cl)cc3)nc12 [PARP INHIBITOR XII] | Inactive | Inactive | Inactive | Inactive | Inactive | Inactive | Inactive | –
19 | O=C(CCN1CCN(C(=O)OCc2cc(Cl)cc(Cl)c2)CC1)c1ccc2[nH]c(=O)oc2c1 [PF-8380] | Inactive | Inactive | Inactive | Inactive | Inactive | Inactive | Inactive | –
20 | CN(C)CC(=O)Nc1ccc2[nH]c(=O)c3ccccc3c2c1 [PJ34] | Inactive | Inactive | Inactive | Inactive | Inactive | Inactive | Inactive | –
21 | O=C(O)C(Cc1c[nH]c2ccccc12)N1C(=O)c2ccccc2C1=O (centres unmarked) [RG108] | Inactive | Inactive | Inactive | Inactive | Inactive | Inactive | Inactive | –
22 | SCH 51344 | – | Inactive | Inactive | Inactive | Inactive | Inactive | Inactive | average effective concentration, MOLM-13 (MOLM-13; [3]): Inactive
